Where “and” joins values, the source holds several entries; their conditions need not be identical. Identical values can stand only once.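 Tested at 5 concentrations; 48 h exposure; 96-well plates; endpoints linearly interpolated, else capped at highest concentration. TGI: total growth inhibition.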
Assays:
Experiment in all cases: NCI anticancer screen, dose series, 48 h
CCRF-CEM leukemia = tested on: CCRF-CEM leukemia
HCT-116 colon = tested on: HCT-116 colon
K-562 leukemia = tested on: K-562 leukemia
MOLT-4 leukemia = tested on: MOLT-4 leukemia
RXF 393 renal = tested on: RXF 393 renal
UACC-62 melanoma = tested on: UACC-62 melanoma
UO-31 renal = tested on: UO-31 renal
MALME-3M melanoma = tested on: MALME-3M melanoma
NCI/ADR-RES ovarian = tested on: NCI/ADR-RES ovarian
PC-3 prostate = tested on: PC-3 prostate

SMILES | TGI (CCRF-CEM leukemia) | TGI (HCT-116 colon) | TGI (K-562 leukemia) | TGI (MOLT-4 leukemia) | TGI (RXF 393 renal) | TGI (UACC-62 melanoma) | TGI (UO-31 renal) | TGI (MALME-3M melanoma) | TGI (NCI/ADR-RES ovarian) | TGI (PC-3 prostate)
CCN(CC)/[N+]([O-])=N/OC | > 100 µM | > 100 µM | > 100 µM | > 100 µM | > 100 µM | > 100 µM | > 100 µM |  |  | 
COC1OC(C(=O)CP(=O)(OC)OC)C(OCc2ccccc2)C(OCc2ccccc2)C1OCc1ccccc1 (stereo not drawn) | > 100 µM and 96.3 µM | 29 µM and 30.2 µM | 63.1 µM and > 100 µM | 32.7 µM and 50.3 µM | 26.3 µM and 29.5 µM | 26.6 µM and 28 µM | 30.9 µM and 23.5 µM | 32.4 µM and 34.5 µM | 42.6 µM and 46 µM | 28.1 µM and 28.7 µM
O=C(CSc1nc2ccc(Cl)cc2c(=O)n1-c1ccccc1)N=Nc1c(O)[nH]c2ccc(F)cc12 | 6.34 µM | 3.28 µM | 11.3 µM | 5.56 µM | 4.26 µM | 7.1 µM | 0.411 µM | 11.6 µM | 8.44 µM | 6.82 µM
CCCCCCOC(=O)C(N)Cc1ccc(OC)cc1 (stereo not drawn) | > 100 µM | > 100 µM | > 100 µM | > 100 µM | > 100 µM | > 100 µM | > 100 µM | > 100 µM | > 100 µM | > 100 µM
C/C(=C\CNc1ncnc2nc(Cl)[nH]c12)CO | > 100 µM | > 100 µM | > 100 µM | > 100 µM | > 100 µM |  | > 100 µM | > 100 µM | > 100 µM | > 100 µM
O=CC(O)C(O)C(O)COc1cc(CO)cc2c1C(=O)c1ccccc1C2=O (stereo not drawn) | > 100 µM | > 100 µM | > 100 µM | > 100 µM | > 100 µM | > 100 µM | > 100 µM | > 100 µM |  | 
COC(=N)C(C)C | > 100 µM | > 100 µM | > 100 µM | > 100 µM | > 100 µM | > 100 µM | > 100 µM | > 100 µM |  | 
CC(C)c1ccc2c(c1)[C@@]1(C)CC[C@H](C)C(C)(C)C1CC2 (stereo partly drawn) | 47.7 µM | 34.9 µM | > 100 µM | 94.7 µM | 33.2 µM | 29.9 µM | > 100 µM | 37 µM | 36.6 µM | 
Clc1ccc(NCc2nnc(COc3ccc(OCc4nnc(CNc5ccc(Cl)cc5)o4)c(Cl)c3)o2)cc1 | 44.8 µM | > 100 µM |  |  | > 100 µM | > 100 µM | > 100 µM | > 100 µM | 68.5 µM | > 100 µM
NCCCCN | > 100 µM | > 100 µM | > 100 µM | > 100 µM | > 100 µM | > 100 µM | > 100 µM | > 100 µM | > 100 µM | > 100 µM
CN(C)C/C=C(/c1ccc(Br)cc1)c1cccnc1 |  | > 100 µM | > 100 µM | > 100 µM | > 100 µM | 39.1 µM | > 100 µM | 44.1 µM | > 100 µM | > 100 µM
